{"source": "PubChem BioAssay AID328", "about": "(DTP/NCI, 2004)", "tested_on": "BDF1 mice, P388 leukemia ip, median survival T/C", "test": "NCI In Vivo Anticancer Drug Screen. Data for tumor model P388 Leukemia (intraperitoneal) in B6D2F1 (BDF1) mice", "conditions": "endpoint: median survival time, higher = longer survival", "summary_of_the_method": "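Steps: implant the tumour, treat one group with compound and another with vehicle, record survival, then divide treated by control.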", "key": {"[1]": {"conditions": "dose: 100.0 mg/kg/injection, schedule: Q01DX009 (ip), vehicle: water"}, "[2]": {"conditions": "dose: 200.0 mg/kg/injection, schedule: Q01DX009 (ip), vehicle: water"}, "[3]": {"conditions": "dose: 100.0 mg/kg/injection, schedule: Q01DX009 (ip), vehicle: saline with Tween-80"}, "[4]": {"conditions": "dose: 100.0 mg/kg/injection, schedule: Q04DX003 (ip), vehicle: saline with Tween-80"}, "[5]": {"conditions": "dose: 200.0 mg/kg/injection, schedule: Q01DX009 (ip), vehicle: saline with Tween-80"}, "[6]": {"conditions": "dose: 50.0 mg/kg/injection, schedule: Q01DX009 (ip), vehicle: saline with Tween-80"}, "[7]": {"conditions": "dose: 100.0 mg/kg/injection, schedule: Q01DX009 (ip), vehicle: saline"}, "[8]": {"conditions": "dose: 200.0 mg/kg/injection, schedule: Q01DX009 (ip), vehicle: saline"}, "[9]": {"conditions": "dose: 100.0 mg/kg/injection, schedule: Q01DX009 (ip), vehicle: Klucel (hydroxypropylcellulose) (HPC)"}, "[10]": {"conditions": "dose: 100.0 mg/kg/injection, schedule: Q04DX003 (ip), vehicle: Klucel (hydroxypropylcellulose) (HPC)"}, "[11]": {"conditions": "dose: 200.0 mg/kg/injection, schedule: Q04DX003 (ip), vehicle: Klucel (hydroxypropylcellulose) (HPC)"}}, "note": "Toxic doses and inconclusive results are not listed."}
{"smiles": "Nc1ncnc2c1ncn2C1OC(CO)C(O)C1O.[Cl][Pt][Cl]", "note": "(stereo unspecified)", "values": [{"measurement": "T/C", "setting": "[1]", "value": "115 % of control"}, {"measurement": "T/C", "setting": "[2]", "value": "102 % of control"}, {"measurement": "T/C", "setting": "dose: 400.0 mg/kg/injection, schedule: Q01DX009 (ip), vehicle: water", "value": "96 % of control"}]}
{"smiles": "Cc1cc2c(C(C)C)c(O)c(O)c(C=O)c2c(O)c1-c1c(C)cc2c(C(C)C)c(O)c(O)c(C=O)c2c1O", "values": [{"measurement": "T/C", "setting": "dose: 1.25 mg/kg/injection, schedule: Q01DX009 (ip), vehicle: saline with Tween-80", "value": "124 % of control"}, {"measurement": "T/C", "setting": "dose: 2.5 mg/kg/injection, schedule: Q01DX009 (ip), vehicle: saline with Tween-80", "value": "120 % of control"}]}
{"smiles": "COc1ccc(NCCOc2ccccc2Br)cc1", "values": [{"measurement": "T/C", "setting": "dose: 100.0 mg/kg/injection, schedule: Q01DX009 (ip), vehicle: other", "value": "109 % of control"}, {"measurement": "T/C", "setting": "dose: 400.0 mg/kg/injection, schedule: Q01DX009 (ip), vehicle: other", "value": "118 % of control"}]}
{"smiles": "O=C(c1ccc(Cl)cc1)C1Cc2ccccc2C1=O", "note": "(stereo unspecified)", "values": [{"measurement": "T/C", "setting": "[3]", "value": "91 % of control"}, {"measurement": "T/C", "setting": "[4]", "value": "91 % of control"}, {"measurement": "T/C", "setting": "[5]", "value": "91 % of control"}, {"measurement": "T/C", "setting": "dose: 200.0 mg/kg/injection, schedule: Q04DX003 (ip), vehicle: saline with Tween-80", "value": "121 % of control"}, {"measurement": "T/C", "setting": "dose: 400.0 mg/kg/injection, schedule: Q01DX009 (ip), vehicle: saline with Tween-80", "value": "100 % of control"}, {"measurement": "T/C", "setting": "dose: 400.0 mg/kg/injection, schedule: Q04DX003 (ip), vehicle: saline with Tween-80", "value": "100 % of control"}]}
{"smiles": "O=C(CC(=O)C(F)(F)F)c1ccc(-c2ccccc2)cc1", "values": [{"measurement": "T/C", "setting": "[6]", "value": "110 % of control"}, {"measurement": "T/C", "setting": "[3]", "value": "122 % of control"}]}
{"smiles": "O=C(O)/C=C/C(=O)Nc1cccc(Oc2ccc([N+](=O)[O-])cc2[N+](=O)[O-])c1", "values": [{"measurement": "T/C", "setting": "[7]", "value": "118 % of control"}, {"measurement": "T/C", "setting": "dose: 100.0 mg/kg/injection, schedule: Q04DX003 (ip), vehicle: other", "value": "100 % of control"}, {"measurement": "T/C", "setting": "[8]", "value": "122 % of control"}, {"measurement": "T/C", "setting": "dose: 200.0 mg/kg/injection, schedule: Q04DX003 (ip), vehicle: other", "value": "100 % of control"}, {"measurement": "T/C", "setting": "dose: 400.0 mg/kg/injection, schedule: Q04DX003 (ip), vehicle: other", "value": "91 % of control"}]}
{"smiles": "Cc1cc(=O)[nH]c(N/N=C/C(C)C)n1", "values": [{"measurement": "T/C", "setting": "dose: 25.0 mg/kg/injection, schedule: Q01DX009 (ip), vehicle: Klucel (hydroxypropylcellulose) (HPC)", "value": "92 % of control"}, {"measurement": "T/C", "setting": "dose: 50.0 mg/kg/injection, schedule: Q01DX009 (ip), vehicle: Klucel (hydroxypropylcellulose) (HPC)", "value": "92 % of control"}, {"measurement": "T/C", "setting": "dose: 50.0 mg/kg/injection, schedule: Q04DX003 (ip), vehicle: Klucel (hydroxypropylcellulose) (HPC)", "value": "96 % of control"}, {"measurement": "T/C", "setting": "[9]", "value": "100 % of control"}, {"measurement": "T/C", "setting": "[10]", "value": "88 % of control"}, {"measurement": "T/C", "setting": "[11]", "value": "88 % of control"}]}
{"smiles": "CS(=O)C/C(=C/CCCl)c1cccs1", "note": "(stereo unspecified)", "values": [{"measurement": "T/C", "setting": "[6]", "value": "105 % of control"}, {"measurement": "T/C", "setting": "[3]", "value": "94 % of control"}, {"measurement": "T/C", "setting": "[5]", "value": "105 % of control"}]}
{"smiles": "CCN(CC)CCNC(=S)N/N=C(C)\\C(C)=N/NC(=S)NCCN(CC)CC", "values": [{"measurement": "T/C", "setting": "dose: 6.25 mg/kg/injection, schedule: Q01DX009 (ip), vehicle: saline", "value": "105 % of control"}, {"measurement": "T/C", "setting": "dose: 12.5 mg/kg/injection, schedule: Q01DX009 (ip), vehicle: saline", "value": "105 % of control"}]}
{"smiles": "O=[N+]([O-])c1ccc(S(=O)c2ccc([N+](=O)[O-])c3no[n+]([O-])c23)cc1", "note": "(stereo unspecified)", "values": [{"measurement": "T/C", "setting": "dose: 10.0 mg/kg/injection, schedule: Q01DX009 (ip), vehicle: saline with Tween-80", "value": "104 % of control"}, {"measurement": "T/C", "setting": "dose: 20.0 mg/kg/injection, schedule: Q01DX009 (ip), vehicle: saline with Tween-80", "value": "100 % of control"}, {"measurement": "T/C", "setting": "dose: 40.0 mg/kg/injection, schedule: Q01DX009 (ip), vehicle: saline with Tween-80", "value": "102 % of control"}]}
{"smiles": "Nc1cc(S(N)(=O)=O)ccc1SSc1ccc(S(N)(=O)=O)cc1N", "values": [{"measurement": "T/C", "setting": "[7]", "value": "122 % of control"}, {"measurement": "T/C", "setting": "[8]", "value": "154 % of control"}]}
{"smiles": "CC1(C)OC2(C)CCC1C(O)C2N1CCCCC1", "note": "(stereo unspecified)", "values": [{"measurement": "T/C", "setting": "dose: 50.0 mg/kg/injection, schedule: Q01DX005 (ip), vehicle: saline with Tween-80", "value": "108 % of control"}, {"measurement": "T/C", "setting": "dose: 100.0 mg/kg/injection, schedule: Q01DX005 (ip), vehicle: saline with Tween-80", "value": "95 % of control"}, {"measurement": "T/C", "setting": "dose: 200.0 mg/kg/injection, schedule: Q01DX005 (ip), vehicle: saline with Tween-80", "value": "106 % of control"}]}
{"smiles": "Cc1cc(Cl)ccc1NC(=O)c1ccc(Cl)cc1", "values": [{"measurement": "T/C", "setting": "dose: 75.0 mg/kg/injection, schedule: Q01DX009 (ip), vehicle: Klucel (hydroxypropylcellulose) (HPC)", "value": "113 % of control"}, {"measurement": "T/C", "setting": "dose: 150.0 mg/kg/injection, schedule: Q01DX009 (ip), vehicle: Klucel (hydroxypropylcellulose) (HPC)", "value": "95 % of control"}, {"measurement": "T/C", "setting": "dose: 300.0 mg/kg/injection, schedule: Q01DX009 (ip), vehicle: Klucel (hydroxypropylcellulose) (HPC)", "value": "100 % of control"}]}
{"smiles": "Cc1ccc(CNc2ccc([N+](=O)[O-])cc2)cc1", "values": [{"measurement": "T/C", "setting": "[6]", "value": "104 % of control"}, {"measurement": "T/C", "setting": "[3]", "value": "90 % of control"}, {"measurement": "T/C", "setting": "[5]", "value": "104 % of control"}]}
{"smiles": "COc1ccc2nc(NCN3C(=O)c4ccccc4C3=O)sc2c1", "values": [{"measurement": "T/C", "setting": "dose: 100.0 mg/kg/injection, schedule: Q01DX001 (ip), vehicle: Klucel (hydroxypropylcellulose) (HPC)", "value": "104 % of control"}, {"measurement": "T/C", "setting": "[9]", "value": "109 % of control"}, {"measurement": "T/C", "setting": "[10]", "value": "100 % of control"}, {"measurement": "T/C", "setting": "dose: 200.0 mg/kg/injection, schedule: Q01DX001 (ip), vehicle: Klucel (hydroxypropylcellulose) (HPC)", "value": "100 % of control"}, {"measurement": "T/C", "setting": "dose: 200.0 mg/kg/injection, schedule: Q01DX009 (ip), vehicle: Klucel (hydroxypropylcellulose) (HPC)", "value": "104 % of control"}, {"measurement": "T/C", "setting": "[11]", "value": "100 % of control"}, {"measurement": "T/C", "setting": "dose: 400.0 mg/kg/injection, schedule: Q01DX001 (ip), vehicle: Klucel (hydroxypropylcellulose) (HPC)", "value": "95 % of control"}, {"measurement": "T/C", "setting": "dose: 400.0 mg/kg/injection, schedule: Q01DX009 (ip), vehicle: Klucel (hydroxypropylcellulose) (HPC)", "value": "104 % of control"}, {"measurement": "T/C", "setting": "dose: 400.0 mg/kg/injection, schedule: Q04DX003 (ip), vehicle: Klucel (hydroxypropylcellulose) (HPC)", "value": "100 % of control"}]}
{"smiles": "c1cc2n(n1)CCN2", "values": [{"measurement": "T/C", "setting": "dose: 50.0 mg/kg/injection, schedule: Q01DX009 (ip), vehicle: water", "value": "105 % of control"}, {"measurement": "T/C", "setting": "dose: 80.0 mg/kg/injection, schedule: Q01DX009 (ip), vehicle: saline", "value": "90 % of control"}, {"measurement": "T/C", "setting": "[1]", "value": "90 % of control"}, {"measurement": "T/C", "setting": "[4]", "value": "120 % of control"}, {"measurement": "T/C", "setting": "dose: 100.0 mg/kg/injection, schedule: Q04DX003 (ip), vehicle: water", "value": "103 % of control"}, {"measurement": "T/C", "setting": "dose: 120.0 mg/kg/injection, schedule: Q01DX009 (ip), vehicle: saline", "value": "107 % of control"}, {"measurement": "T/C", "setting": "dose: 180.0 mg/kg/injection, schedule: Q01DX009 (ip), vehicle: saline", "value": "112 % of control"}, {"measurement": "T/C", "setting": "[2]", "value": "90 % of control"}, {"measurement": "T/C", "setting": "dose: 200.0 mg/kg/injection, schedule: Q04DX003 (ip), vehicle: water", "value": "96 % of control"}, {"measurement": "T/C", "setting": "dose: 400.0 mg/kg/injection, schedule: Q04DX003 (ip), vehicle: water", "value": "121 % of control"}]}
{"smiles": "CN(C)c1ccc(C(=C2C=CC(=[N+](C)C)C=C2)c2ccc(N(C)C)cc2)cc1", "values": [{"measurement": "T/C", "setting": "dose: 0.78 mg/kg/injection, schedule: Q01DX009 (ip), vehicle: saline", "value": "107 % of control"}, {"measurement": "T/C", "setting": "dose: 1.56 mg/kg/injection, schedule: Q01DX009 (ip), vehicle: saline", "value": "121 % of control"}, {"measurement": "T/C", "setting": "dose: 1.56 mg/kg/injection, schedule: Q04DX003 (ip), vehicle: saline", "value": "122 % of control"}, {"measurement": "T/C", "setting": "dose: 3.12 mg/kg/injection, schedule: Q04DX003 (ip), vehicle: saline", "value": "86 % of control"}]}
{"smiles": "c1ccc2c3nc(nc2c1)CCCCCCCN3", "values": [{"measurement": "T/C", "setting": "[10]", "value": "109 % of control"}, {"measurement": "T/C", "setting": "[11]", "value": "94 % of control"}]}
{"smiles": "O=C(O)CCCNSc1ccccc1[N+](=O)[O-]", "values": [{"measurement": "T/C", "setting": "[3]", "value": "124 % of control"}]}
